According to US20090023771A1, “PHARMACEUTICAL COMPOSITION COMPRISING A PROTON PUMP INHIBITOR AND PROTEIN COMPONENT” (The Curators of the University of Missouri, priority 2007, published 2009):

Test: Degradation of omeprazole (PPI) by stomach acid when combined with buffering agent and/or protein component (FIGS. 1-6)
Type: physicochemical
Conditions: 40 mg omeprazole with 800 mg aluminum glycinate and 800 mg sodium bicarbonate (20:1 each); FIGS. 5 and 6; compared with sodium bicarbonate and omeprazole alone (FIGS. 3 and 4)
Description: FIG. 2 is a line graph illustrating the degradation of 40 mg omeprazole when it is administered with 800 mg of L-carnosine and 800 mg sodium bicarbonate (20:1 ratio of L-carnosine to omeprazole and sodium bicarbonate to omeprazole). FIG. 4 is a line graph illustrating the degradation of 40 mg omeprazole when it is administered with 1600 mg sodium bicarbonate (40:1 ratio). FIG. 6 is a line graph illustrating the degradation of 40 mg omeprazole when it is administered with 800 mg of aluminum glycinate and 800 mg sodium bicarbonate (20:1 ratio of aluminum glycinate to omeprazole and sodium bicarbonate to omeprazole).

COc1ccc2[nH]c([S+]([O-])Cc3ncc(C)c(OC)c3C)nc2c1 (stereo not shown) [omeprazole]
degradation of the omeprazole: immediate degradation
